BindingDB's records for doi:10.1016/j.bioorg.2016.02.004 (Universiti Teknologi Mara (Uitm), Puncak Alam Campus, 2016)

Target: Alpha-glucosidase MAL12 (Saccharomyces cerevisiae (strain ATCC 204508 / S288c), UniProt P53341)
Assay: Assay for α-Glucosidase Inhibitory Activity
Protocol: The 135 µL of 50 mM phosphate saline buffer pH (6.8), solution of enzyme (20 µL), and 20 µL of test sample with 70% DMSO was added to 96-well plate. The samples were incubated for 15 min. Pre-read of the plate was taken after incubation using SpectraMax. substrate (pNPG) (25 µL) was added before final reading was takenat 400 nm on Spectra Max.

Sequence of Alpha-glucosidase MAL12 (P53341 whole entry): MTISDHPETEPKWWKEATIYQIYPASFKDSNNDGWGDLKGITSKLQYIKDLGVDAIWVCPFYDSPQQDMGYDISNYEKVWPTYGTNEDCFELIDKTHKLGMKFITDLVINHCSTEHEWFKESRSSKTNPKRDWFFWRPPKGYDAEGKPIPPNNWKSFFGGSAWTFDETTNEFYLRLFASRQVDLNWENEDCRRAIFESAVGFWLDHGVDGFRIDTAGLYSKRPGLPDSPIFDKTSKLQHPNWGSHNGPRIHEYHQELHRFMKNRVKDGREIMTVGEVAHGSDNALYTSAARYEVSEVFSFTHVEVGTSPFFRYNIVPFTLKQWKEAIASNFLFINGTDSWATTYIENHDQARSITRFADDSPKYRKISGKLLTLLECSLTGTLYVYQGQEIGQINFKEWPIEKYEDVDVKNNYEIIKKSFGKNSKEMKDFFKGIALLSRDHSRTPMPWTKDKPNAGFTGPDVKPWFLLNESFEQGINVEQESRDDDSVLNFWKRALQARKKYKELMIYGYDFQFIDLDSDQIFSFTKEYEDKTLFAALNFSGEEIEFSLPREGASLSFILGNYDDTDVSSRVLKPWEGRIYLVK

Row | Compound | IC50
1 | Cc1cccc2nc(-c3cccc(O)c3)[nH]c12 [2-(3'-Hydroxyphenyl)-7-methyl-1H-benzo[d]imidazole (18)] | 326 µM
2 | Cc1cccc2nc(-c3ccc(O)c(O)c3)[nH]c12 [2-(3',4'-Dihydroxyphenyl)-7-methyl-1H-benzo[d]imidazole (10)] | 25.4 µM
3 | Cc1cccc2nc(-c3ccncc3)[nH]c12 [7-Methyl-2-(pyridin-4'-yl)-1H-benzo[d]imidazole (24)] | 726 µM
4 | Cc1cccc2nc(-c3ccccc3F)[nH]c12 [2-(2'-Fluorophenyl)-7-methyl-1H-benzo[d]imidazole (8)] | 34.4 µM
5 | Cc1cccc2nc(-c3ccc(O)cc3O)[nH]c12 [2-(2',4'-Dihydroxyphenyl)-7-methyl-1H-benzo[d]imidazole (2)] | 60.9 µM
6 | Cc1cccc2nc(-c3ccccc3O)[nH]c12 [2-(2'-Hydroxyphenyl)-7-methyl-1H-benzo[d]imidazole (19)] | 16.1 µM
7 | Cc1cccc2nc(-c3ccc(F)cc3)[nH]c12 [2-(4'-Fluorophenyl)-7-methyl-1H-benzo[d]imidazole (16)] | 136 µM
8 | Cc1cccc2nc(-c3ccc(O)cc3)[nH]c12 [2-(4'-Hydroxyphenyl)-7-methyl-1H-benzo[d]imidazole (17)] | 95.6 µM
9 | Cc1cccc2nc(-c3ccccc3[N+](=O)[O-])[nH]c12 [2-(2'-Nitrophenyl)-7-methyl-1H-benzo[d]imidazole (7)] | 44.6 µM
10 | Cc1cccc2nc(-c3ccc(Cl)cc3)[nH]c12 [2-(4'-Chlorophenyl)-7-methyl-1H-benzo[d]imidazole (27)] | 145 µM
11 | Cc1cccc2nc(-c3cccc(O)c3O)[nH]c12 [2-(2',3'-Dihydroxyphenyl)-7-methyl-1H-benzo[d]imidazole (15)] | 85.6 µM
12 | COc1ccc(-c2nc3cccc(C)c3[nH]2)c(O)c1 [2-(2'-Hydroxy-4'-methoxyphenyl)-7-methyl-1H-benzo[d]imidazole (20)] | 29.8 µM
13 | COc1ccc(-c2nc3cccc(C)c3[nH]2)cc1O [2-(3'-Hydroxy-4'-methoxyphenyl)-7-methyl-1H-benzo[d]imidazole (21)] | 226 µM
14 | COc1ccc(O)c(-c2nc3cccc(C)c3[nH]2)c1 [2-(2'-Hydroxy-5'-methoxyphenyl)-7-methyl-1H-benzo[d]imidazole (14)] | 45.2 µM
15 | Cc1cccc2nc(-c3cc(O)ccc3O)[nH]c12 [2-(20,50-Dihydroxyphenyl)-7-methyl-1H-benzo[d]imidazole (13)] | 125 µM
16 | Cc1cccc2nc(-c3cccc(F)c3)[nH]c12 [2-(3'-Fluorophenyl)-7-methyl-1H-benzo[d]imidazole (9)] | 165 µM
17 | Cc1cccc2nc(-c3ccccc3Cl)[nH]c12 [2-(2'-Chlorophenyl)-7-methyl-1H-benzo[d]imidazole (25)] | 5.3 µM
